In publication PMC12040169 (PLOS Biology, 2025):

Test: in vitro
Conditions: human, hela cells, % viability

| SMILES | viability at 28.5 h, 10 µM [%] |
| --- | --- |
| CCn1c(SCC(=O)NC2CCCCC2C)nnc1-c1cc2cccc(OC)c2o1 (centres unmarked) [CBK267148] | 89.5 |
| O=C(Nc1ccccc1Cl)c1ccc(NCCN2C(=O)c3ccccc3C2=O)c([N+](=O)[O-])c1 [CBK267149] | 95.8 |
| Cc1cc(Br)cc(C)c1OCC(=O)NNC(=O)Cc1cccc2ccccc12 [CBK267151] | 95.2 |
| CCn1c(S)nnc1CNC(=O)c1ccc(Cl)cc1Cl [CBK267152] | 94.3 |
| Cc1cccc(OCc2nnc(SCC(=O)Nc3cccc4ccccc34)o2)c1C [CBK267153] | 108 |
| COc1c(C)cc(Br)cc1C(=O)Nc1ccccc1-c1nc2ccccc2s1 [CBK267155] | 99.8 |
| Cc1cccc(C)c1NC(=O)CCC(=O)OCc1ccccc1 [CBK267158] | 102 |
| Cc1ccc(NC(=O)c2cc([N+](=O)[O-])ccc2NCCN2C(=O)c3ccccc3C2=O)cc1 [CBK267159] | 87.5 |
| COc1ccc(S(=O)(=O)N2CCC(C(=O)O)CC2)cc1Cl [CBK267162] | 94.9 |
| O=C(CC1NC(=O)NC1=O)Nc1cccc2ccccc12 (centres unmarked) [CBK267164] | 90.3 |
| NC(=O)C1(N2CCCCC2)CCN(C(=S)Nc2ccc(F)c(Cl)c2)CC1 [CBK267165] | 97.4 |
| COc1cc(/C=C/c2nc(O)c([N+](=O)[O-])c(=O)[nH]2)ccc1OCC(=O)N1CCOCC1 [CBK267168] | 96.8 |
| COc1ccc(Nc2nc(-c3sc(C)nc3C)cs2)c(OC)c1 [CBK267170] | 46.5 |
| Nc1ccc(-c2nnc(SCC(=O)Nc3ccc(Br)cc3F)n2-c2ccccc2)cc1 [CBK267175] | 98.8 |
| COc1ccc(S(=O)(=O)N(C)CC(=O)O)cc1C [CBK267176] | 108 |
| O=c1oc2cc(S(=O)(=O)NCc3ccco3)ccc2c2ccc(S(=O)(=O)NCc3ccco3)cc12 [CBK267177] | 96.5 |
| O=C(CNS(=O)(=O)c1cccc(Cl)c1)Nc1ccc(-c2nc3ccccc3s2)cc1 [CBK267178] | 97.5 |
| CCCOc1ccccc1-c1nnc(SCCC(=O)O)[nH]1 [CBK267182] | 93.9 |
| COC(=O)c1sccc1NC(=O)Cn1nnc(-c2ccc(C)cc2)n1 [CBK267183] | 98.4 |
| c1ccc(-c2csc(Nc3cccnc3)n2)nc1 [CBK267184] | 107 |
| O=C(CSc1nnc(COc2ccccc2)o1)N1CCN(c2ccccc2)CC1 [CBK267185] | 97.5 |

| SMILES | viability at 28.5 h, 10 µM [%] |
| --- | --- |
| Nc1ncnc(NNC(=O)CNC(=O)c2ccccc2C(F)(F)F)c1[N+](=O)[O-] [CBK267186] | 94.1 |
| COC(=O)c1ccc(N2C(=O)CC(SCCc3nc4ccccc4[nH]3)C2=O)cc1 (centres unmarked) [CBK267188] | 88.5 |
| Cc1ccc2oc3c(c(=O)c2c1)C(c1ccc(OCC(N)=O)cc1)N(Cc1ccc2c(c1)OCO2)C3=O (centres unmarked) [CBK267189] | 91.3 |
| O=C(CN1CCNCC1)Nc1ccc(Oc2ccccc2)cc1 [CBK267191C] | 102 |
| COc1ccc(Cl)cc1NC(=S)NCCc1ccc(S(N)(=O)=O)cc1 [CBK267198] | 85.6 |
| Nc1c(C(=O)NCc2ccccc2)c2nc3ccccc3nc2n1CCO [CBK267201] | 108 |
| CCOc1ccccc1-n1c(CN2CCN(C(=O)c3ccco3)CC2)nc2ccccc2c1=O [CBK267203] | 86.4 |
| Cc1cccc(OCc2nnc(SCC(=O)Nc3cc(C(F)(F)F)ccc3Cl)o2)c1C [CBK267204] | 85.3 |
| CC1(C)Cc2nc(-c3ccccc3)nc(SCC(=O)NCCc3ccccc3)c2CO1 [CBK267205] | 86.7 |
| O=C(c1ccco1)N1CCN(c2ncnc3scc(-c4cccs4)c23)CC1 [CBK267208] | 110 |
| O=C(Nc1ccc(N2CCN(Cc3ccccc3F)CC2)cc1)c1cc2ccccc2o1 [CBK267210] | 87.4 |
| O=C(NCC1CCCO1)c1ccc(CNS(=O)(=O)c2cccc(Cl)c2)cc1 (centres unmarked) [CBK267219] | 88.6 |
| Cc1nn(-c2nc3ccccc3s2)c(O)c1C1OC(=O)c2ccccc21 (centres unmarked) [CBK267220] | 95 |
| CC(C)c1ccc(OCC(=O)NNC(=O)c2ccco2)c(Br)c1 [CBK267224] | 86.7 |
| O=C(c1ccco1)N1CCN(Cc2nc3ccccc3c(=O)n2-c2ccc(F)cc2)CC1 [CBK267226] | 94.3 |
| Cc1nc2ccc(NC(=S)N3CCN(c4ccccn4)CC3)cc2nc1C [CBK267227] | 67.1 |
| CCOc1ccc2nc(SCC(=O)Nc3c(C)n(C)n(-c4ccccc4)c3=O)sc2c1 [CBK267229] | 95.5 |
| Cc1ccccc1OCc1nn2c(COc3ccccc3)nnc2s1 [CBK267230] | 85.4 |
| CCOC(=O)c1c(NC(=O)CSc2nc[nH]n2)sc2c1CCCCC2 [CBK267231] | 90.8 |
| COC(=O)c1ccc(NC(=S)N2CCC(C(N)=O)CC2)cc1 [CBK267232] | 90.2 |
| C=CCOc1ccccc1CNc1nc[nH]n1 [CBK267234] | 93.7 |

| SMILES | viability at 28.5 h, 10 µM [%] |
| --- | --- |
| Cc1cc(Sc2ncnc(N)c2[N+](=O)[O-])ncn1 [CBK267235] | 36.7 |
| O=C(Nc1nnn[nH]1)C1(c2ccc([N+](=O)[O-])cc2)CCCC1 [CBK267237] | 93.7 |
| O=C(CCc1nc2ccccc2[nH]1)Nc1ccc(F)cc1 [CBK267238] | 95.5 |
| O=C(CSc1nnc(-c2ccncc2)n1-c1ccccc1)N1CCN(Cc2ccccc2)CC1 [CBK267240] | 105 |
| COc1ccc(CN2CC(C(=O)O)CC2=O)cc1 (centres unmarked) [CBK267242] | 96.4 |
| O=C(NCCCN1CCOCC1)C(=O)NC1CC1 [CBK267243] | 101 |
| Fc1cccc(Cl)c1CNc1ccc(CNc2ncn[nH]2)cc1 [CBK267245] | 93.1 |
| Cc1ccc(Cl)cc1NC(=O)CC1NCCNC1=O (centres unmarked) [CBK267246] | 97 |
| Cc1ccc(-c2nn3c(C)nnc3s2)cc1NC(=O)c1ccc([N+](=O)[O-])o1 [CBK267247] | 95.2 |
| CC(C)(C)c1ccc(S(=O)(=O)NCc2ccc(C(=O)NCc3ccccn3)cc2)cc1 [CBK267248] | 115 |
| O=C(NCc1ccccn1)c1ccc(NS(=O)(=O)c2cccc(Cl)c2)cc1 [CBK267249] | 111 |
| O=C(Nc1ccc(N2CCN(Cc3ccccc3F)CC2)cc1)c1cccnc1 [CBK267250] | 106 |
| N#C/C(=C\c1c[nH]nc1-c1ccccc1)c1nc(-c2cccc([N+](=O)[O-])c2)cs1 [CBK267252] | 96.8 |
| O=C(Nc1ccc2nc(-c3ccco3)c(-c3ccco3)nc2c1)N1CCCCCC1 [CBK267253] | 85.4 |
| Nc1ncnc(Nc2ccc(F)cc2Cl)c1[N+](=O)[O-] [CBK267255] | 93.1 |
| Cc1ccccc1C(=O)Nc1cccc(NC(=O)c2ccc(-c3cc4ccccc4oc3=O)cc2)c1 [CBK267256] | 118 |
| CN1CCN(C(=O)c2ccc3nc(-c4ccccc4)c(-c4ccccc4)nc3c2)CC1 [CBK267257] | 98.7 |
| COC(=O)COc1ccc(Oc2nc(N(C)C)nc(N3CCOCC3)n2)nn1 [CBK267258] | 104 |
| COc1ccc(CCNc2nc(-c3ccccn3)cs2)cc1OC [CBK267260] | 100 |
| Nc1ncnc(NCCCc2ccccc2)c1[N+](=O)[O-] [CBK267261] | 88.9 |
